For this experiment, the target named is T1, recombinant human FLAP protein (Homo sapiens, UniProt P20292).
T1 construct: made in house; host or cells: Sf9 insect cells (membrane fraction, 100,000 x g pellet)
T1 sequence (P20292 1-161): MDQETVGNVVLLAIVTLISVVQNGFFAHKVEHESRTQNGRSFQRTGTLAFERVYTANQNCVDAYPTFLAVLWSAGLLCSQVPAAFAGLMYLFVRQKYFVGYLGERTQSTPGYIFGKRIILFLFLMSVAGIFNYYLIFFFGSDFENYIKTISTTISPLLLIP
In words: FLAP binding assay, displacement of iodinated (125I) FLAP inhibitor, Scintillation Proximity Assay format. The settings on record: [125I]L-691,831 probe, membrane protein from sf9 cells; read-out: hFLAP binding IC50. The protocol:
Compounds are assessed for the ability to bind to FLAP in a binding assay that measures compound-specific displacement of an iodinated (^125I) FLAP inhibitor via a Scintillation Proximity Assay format (adapted from S. Charleson et al., Mol. Pharmacol., 1992, 41, 873-879).
Cell pellets produced from sf9 insect cells expressing recombinant human FLAP protein are resuspended in buffer A [15 mM Tris-HCl (pH 7.5), 2 mM MgCl2, 0.3 mM EDTA, 1 mM PMSF]. The cells are lysed with a Dounce homogenizer and the material is centrifuged at 10,000×g for 10 minutes. The supernatant is then collected and centrifuged at 100,000×g for 60 minutes. To prepare membrane protein for an assay, an aliquot of the 100,000×g pellet is resuspended in 1 ml of buffer A, Dounce homogenized, and finally subjected to polytron mixing (30 seconds). Membrane protein (25 μl, 5 μg) is mixed with WGA SPA beads (Amersham) and stirred for 1 h. To an assay plate (Perkin Elmer FlexiPlate) is added 25 μl of test compound prepared in Binding buffer [100 mM Tris (pH 7.5), 140 mM NaCl, 5% glycerol, 2 mM EDTA, 0.5 mM TCEP, 0.05% Tween 20], 25 μl of [^125I]L-691,831 (an iodinated analog of MK-591, Charleson et al. Mol. Pharmacol., 41, 873-879, 1992) and finally 50 μl of the bead/protein mixture. (final concentrations: beads, 200 μg/well; protein, 5 μg/well; [^125I] probe, 0 08 nM/well (17 nCi/well). The plates are shaken for 2 h before reading on a Microbeta plate reader. Non-specific binding is determined by the addition of 10 μM cold L-691,831 compound.

Consider `CN(C)C(=O)Oc1ccc(-n2cncn2)c(-c2nc3cc(-c4cnc(N)nc4)ccc3n2C(C)(C)C)c1` [Dimethyl-carbamic acid 3-[5-(2-amino-pyrimidin-5-yl)-1-tert-butyl-1H-benzimidazol-2-yl]-4-1,2,4-triazol-1-yl-phenyl ester], for which the IC50 was found to be 15.5 nM.
The same measure for `CCCCC/C(=C\C(=O)OC)c1ccc(-n2cncn2)c(-c2nc3cc(-c4cnc(N)nc4)ccc3n2C(C)(C)C)c1` [(E)-3-{3-[5-(2-Amino-pyrimidin-5-yl)-1-tert-butyl-1H-benzoimidazol-2-yl]-4-[1,2,4]triazol-1-yl-phenyl}-oct-2-enoic acid methyl ester]: 28 nM.
The same measure for `Cc1noc(-c2ccc(Cl)cc2-c2nc3cc(-c4cnc(N)nc4)ccc3n2C(C)(C)C)n1` [5-{1-tert-Butyl-2-[5-chloro-2-(3-methyl-1,2,4-oxadiazol-5-yl)-phenyl]-1H-benzimidazol-5-yl}-pyrimidin-2-ylamine]: 1.9 nM; for `CC(C)Oc1ccc(-n2cncn2)c(-c2nc3cc(-c4cnc(N)nc4)ccc3n2C(C)(C)C)c1` [5-[1-tert-Butyl-2-(5-isopropoxy-2-1,2,4-triazol-1-yl-phenyl)-1H-benzimidazol-5-yl]-pyrimidin-2-ylamine]: 2.2 nM; for `Cc1ccnn1-c1ccc(C#N)cc1-c1nc2cc(-c3cnc(N)nc3)ccc2n1C(C)(C)C` [3-[5-(2-Amino-pyrimidin-5-yl)-1-tert-butyl-1H-benzoimidazol-2-yl]-4-(5-methyl-pyrazol-1-yl)-benzonitrile]: 1.3 nM.
Take `Cc1ccn(-c2ccccc2-c2nc3cc(-c4cnc(N)nc4)ccc3n2C(C)(C)C)n1` [5-{1-tert-Butyl-2-[2-(3-methyl-pyrazol-1-yl)-phenyl]-1H-benzimidazol-5-yl}-pyrimidin-2-ylamine]: the IC50 was 1.1 nM.
For `COc1ccc(-n2ccc(C)n2)c(-c2nc3cc(-c4cnc(N)nc4)ccc3n2C(C)(C)C)c1` [5-{1-tert-Butyl-2-[5-methoxy-2-(3-methyl-pyrazol-1-yl)-phenyl]-1H-benzimidazol-5-yl}-pyrimidin-2-ylamine], the IC50 stood at 8.8 nM.
The result for `CC(C)(C)n1c(-c2cc(OC3CCOC3)ccc2-n2cncn2)nc2cc(-c3cnc(N)nc3)ccc21` (stereo not shown) [5-{1-tert-Butyl-2-[5-(tetrahydro-furan-3-yloxy)-2-1,2,4-triazol-1-yl-phenyl]-1H-benzimidazol-5-yl}-pyrimidin-2-ylamine] reads 6.9 nM; that for `CCN(CC)C(=O)Oc1ccc(-n2cncn2)c(-c2nc3cc(-c4cnc(N)nc4)ccc3n2C(C)(C)C)c1` [Diethyl-carbamic acid 3-[5-(2-amino-pyrimidin-5-yl)-1-tert-butyl-1H-benzimidazol-2-yl]-4-1,2,4-triazol-1-yl-phenyl ester], 8.8 nM.
The result for `COc1ccc(-n2cccn2)c(-c2nc3cc(-c4cnc5c(c4)CCN5)ccc3n2C(C)(C)C)c1` [1-tert-Butyl-5-(2,3-dihydro-1H-pyrrolo[2,3-b]pyridin-5-yl)-2-(5-methoxy-2-pyrazol-1-yl-phenyl)-1H-benzimidazole] reads 1.5 nM.
The result for `Cn1ncnc1-c1ccccc1-c1nc2cc(-c3cnc(N)nc3)ccc2n1C(C)(C)C` [5-{1-tert-Butyl-2-[2-(2-methyl-2H-1,2,4-triazol-3-yl)-phenyl]-1H-benzimidazol-5-yl}-pyrimidin-2-ylamine] reads 6.1 nM.
With `CC(C)(C)n1c(-c2ccccc2-c2ncn(CCO)n2)nc2cc(-c3cnc(N)nc3)ccc21` [2-(3-{2-[5-(2-Amino-pyrimidin-5-yl)-1-tert-butyl-1H-benzoimidazol-2-yl]-phenyl}-[1,2,4]triazol-1-yl)-ethanol], the IC50 came out at 5.8 nM.
For the molecule `Cc1ccc(-c2nc(C)no2)c(-c2nc3cc(-c4cnc(N)nc4)ccc3n2C(C)(C)C)c1` [5-{1-tert-Butyl-2-[5-methyl-2-(3-methyl-1,2,4-oxadiazol-5-yl)-phenyl]-1H-benzimidazol-5-yl}-pyrimidin-2-ylamine], the 50% inhibitory concentration (IC50) was 1.8 nM.
The same measure for `CC(C)(C)n1c(-c2ccccc2-n2cc(Cl)cn2)nc2cc(-c3cnc(N)nc3)ccc21` [5-{1-tert-Butyl-2-[2-(4-chloro-pyrazol-1-yl)-phenyl]-1H-benzimidazol-5-yl}-pyrimidin-2-ylamine]: 4.1 nM.
With `CC(C)(C)n1c(-c2cc(C#N)ccc2-n2cnc(Br)n2)nc2cc(-c3cnc(N)nc3)ccc21` [3-[5-(2-Amino-pyrimidin-5-yl)-1-tert-butyl-1H-benzoimidazol-2-yl]-4-(3-bromo-[1,2,4]triazol-1-yl)-benzonitrile], the half-inhibitory concentration (IC50) amounted to 0.83 nM.
The same measure for `CC(C)(C)n1c(-c2cc(C#N)ccc2-n2cncn2)nc2cc(-c3cnc(N)nc3)ccc21` [3-[5-(2-Amino-pyrimidin-5-yl)-1-tert-butyl-1H-benzimidazol-2-yl]-4-1,2,4-triazol-1-yl-benzonitrile]: 3.1 nM.
The same measure for `CCNC(=O)c1ncn(-c2ccc(C#N)cc2-c2nc3cc(-c4cnc(N)nc4)ccc3n2C(C)(C)C)n1` [1-{2-[5-(2-Amino-pyrimidin-5-yl)-1-tert-butyl-1H-benzoimidazol-2-yl]-4-cyano-phenyl}-1H-[1,2,4]triazole-3-carboxylic acid ethylamide]: 29.5 nM; for `CCOCc1ccc(-n2cncn2)c(-c2nc3cc(-c4cnc(N)nc4)ccc3n2C(C)(C)C)c1` [5-[1-tert-Butyl-2-(5-ethoxymethyl-2-[1,2,4]triazol-1-yl-phenyl)-1H-benzoimidazol-5-yl]-pyrimidin-2-ylamine]: 10 nM; for `COC(=O)C(C)(C)Oc1ccc(-c2nc3cc(-c4cnc(N)nc4)ccc3n2C(C)(C)C)c(-n2cncn2)c1` [2-{4-[5-(2-Amino-pyrimidin-5-yl)-1-tert-butyl-1H-benzoimidazol-2-yl]-3-[1,2,4]triazol-1-yl-phenoxy}-2-methyl-propionic acid methyl ester]: 7.2 nM.
The same measure for `C=Cc1ccc(-n2cncn2)c(-c2nc3cc(-c4cnc(N)nc4)ccc3n2C(C)(C)C)c1` [5-[1-tert-Butyl-2-(2-1,2,4-triazol-1-yl-5-vinyl-phenyl)-1H-benzimidazol-5-yl]-pyrimidin-2-ylamine]: 1.3 nM; for `COc1ccc(-n2cncn2)c(-c2nc3cc(-c4cnc(N)nc4)ccc3n2C(C)(C)C)c1` [5-[1-tert-Butyl-2-(5-methoxy-2-1,2,4-triazol-1-yl-phenyl)-1H-benzimidazol-5-yl]-pyrimidin-2-ylamine]: 1.7 nM; for `CC(C)(C)n1c(-c2cc(I)ccc2-n2cncn2)nc2cc(-c3cnc(N)nc3)ccc21` [5-[1-tert-Butyl-2-(5-iodo-2-1,2,4-triazol-1-yl-phenyl)-1H-benzimidazol-5-yl]-pyrimidin-2-ylamine]: 2.7 nM.
Regarding `Cn1ncnc1-c1ccc(Cl)cc1-c1nc2cc(-c3cnc(N)nc3)ccc2n1C(C)(C)C` [5-{1-tert-Butyl-2-[5-chloro-2-(2-methyl-2H-1,2,4-triazol-3-yl)-phenyl]-1H-benzimidazol-5-yl}-pyrimidin-2-ylamine], the IC50 was determined as 1.2 nM.
The result for `COC(=O)c1ncn(-c2ccc(C#N)cc2-c2nc3cc(-c4cnc(N)nc4)ccc3n2C(C)(C)C)n1` [1-{2-[5-(2-Amino-pyrimidin-5-yl)-1-tert-butyl-1H-benzoimidazol-2-yl]-4-cyano-phenyl}-1H-[1,2,4]triazole-3-carboxylic acid methyl ester] reads 15.9 nM; that for `Cc1ncn(-c2ccc(C#N)cc2-c2nc3cc(-c4cnc(N)nc4)ccc3n2C(C)(C)C)n1` [3-[5-(2-Amino-pyrimidin-5-yl)-1-tert-butyl-1H-benzimidazol-2-yl]-4-(3-methyl-1,2,4-triazol-1-yl)-benzonitrile], 3 nM; that for `CC(C)(C)n1c(-c2cccc(F)c2-n2cncn2)nc2cc(-c3cnc(N)nc3)ccc21` [5-[1-tert-Butyl-2-(3-fluoro-2-1,2,4-triazol-1-yl-phenyl)-1H-benzimidazol-5-yl]-pyrimidin-2-ylamine], 1.7 nM.
The result for `CCOC(=O)C(C)(C)COc1ccc(-c2nc3cc(-c4cnc(N)nc4)ccc3n2C(C)(C)C)c(-n2cncn2)c1` [3-{4-[5-(2-Amino-pyrimidin-5-yl)-1-tert-butyl-1H-benzoimidazol-2-yl]-3-[1,2,4]triazol-1-yl-phenoxy}-2,2-dimethyl-propionic acid ethyl ester] reads 2.7 nM; that for `Cn1cc(-c2ccc(-n3cncn3)c(-c3nc4cc(-c5cnc(N)nc5)ccc4n3C(C)(C)C)c2)cn1` [5-{1-tert-Butyl-2-[5-(1-methyl-1H-pyrazol-4-yl)-2-[1,2,4]triazol-1-yl-phenyl]-1H-benzoimidazol-5-yl}-pyrimidin-2-ylamine], 2.4 nM.

The values are drawn from US8420655B2, “Benzimidazole inhibitors of leukotriene production” (Boehringer Ingelheim International GmbH, priority 2009, dated 2013).
